Test results: US11484539B2, “Compounds and their uses for alleviating menopause-associated symptoms” (Estetra SPRL, priority 2018, dated 2022)

Tested on: post-menopausal women
Assay: Hot Flush Weekly Weighted Score, dose-finding study
Format: in vivo
Protocol: Further, the terms “Hot Flush Weekly Weighted Score”, as used herein, corresponds to a score taking into account frequency and severity which is calculated by using the severity score (as calculated above): [(1× No. of mild VMS)+(2× No. of moderate VMS)+(3× No. of severe VMS)] during a 7 day period.
Such a weighted score was for example used by Notelovitz et al. (“Initial 17β-Estradiol Dose for Treating Vasomotor Symptoms”; Obstetrics and Gynaecology, Vol. 95(5), May 2000, p. 726-731). This score was used to generate the data included in Example 1 further below, under section A. c) “Hot Flush Weekly Weighted Score”.

C[C@]12CC[C@@H]3c4ccc(O)cc4CC[C@H]3[C@@H]1[C@@H](O)[C@@H](O)[C@@H]2O [E4, 1,3,5 (10)-estratrien-3,15alpha,16alpha,17beta-tetrol]
LS adjusted mean change from baseline in Hot Flush Weekly Weighted Score (2.5 mg E4, week 4): −75.37
LS adjusted mean change from baseline in Hot Flush Weekly Weighted Score (2.5 mg E4, week 12): −89.86
Mean change from baseline in Hot Flush Weekly Weighted Score (2.5 mg E4 QD per os, week 0): 2.4151
Mean change from baseline in Hot Flush Weekly Weighted Score (2.5 mg E4 QD per os, week 1): −40.805
Relative change (% from baseline) in Hot Flush Weekly Weighted Score, mean (2.5 mg E4 QD per os, week 1): −22%
Mean change from baseline in Hot Flush Weekly Weighted Score (2.5 mg E4 QD per os, week 2): −58.6163
Relative change (% from baseline) in Hot Flush Weekly Weighted Score, mean (2.5 mg E4 QD per os, week 2): −32%
Mean change from baseline in Hot Flush Weekly Weighted Score (2.5 mg E4 QD per os, week 3): −74.8798
Relative change (% from baseline) in Hot Flush Weekly Weighted Score, mean (2.5 mg E4 QD per os, week 3): −43%
Mean change from baseline in Hot Flush Weekly Weighted Score (2.5 mg E4 QD per os, week 4): −82.75
Relative change (% from baseline) in Hot Flush Weekly Weighted Score, mean (2.5 mg E4 QD per os, week 4): −47%
Mean change from baseline in Hot Flush Weekly Weighted Score (2.5 mg E4 QD per os, week 5): −84.6062
Relative change (% from baseline) in Hot Flush Weekly Weighted Score, mean (2.5 mg E4 QD per os, week 5): −48%
Mean change from baseline in Hot Flush Weekly Weighted Score (2.5 mg E4 QD per os, week 6): −89.9842
Relative change (% from baseline) in Hot Flush Weekly Weighted Score, mean (2.5 mg E4 QD per os, week 6): −51%
Mean change from baseline in Hot Flush Weekly Weighted Score (2.5 mg E4 QD per os, week 7): −94.2468
Relative change (% from baseline) in Hot Flush Weekly Weighted Score, mean (2.5 mg E4 QD per os, week 7): −53%
Mean change from baseline in Hot Flush Weekly Weighted Score (2.5 mg E4 QD per os, week 8): −97.1084
Relative change (% from baseline) in Hot Flush Weekly Weighted Score, mean (2.5 mg E4 QD per os, week 8): −55%
Mean change from baseline in Hot Flush Weekly Weighted Score (2.5 mg E4 QD per os, week 9): −101.429
Relative change (% from baseline) in Hot Flush Weekly Weighted Score, mean (2.5 mg E4 QD per os, week 9): −57%
Mean change from baseline in Hot Flush Weekly Weighted Score (2.5 mg E4 QD per os, week 10): −100.18
Relative change (% from baseline) in Hot Flush Weekly Weighted Score, mean (2.5 mg E4 QD per os, week 10): −57%
Mean change from baseline in Hot Flush Weekly Weighted Score (2.5 mg E4 QD per os, week 11): −97.6016
Relative change (% from baseline) in Hot Flush Weekly Weighted Score, mean (2.5 mg E4 QD per os, week 11): −56%
Mean change from baseline in Hot Flush Weekly Weighted Score (2.5 mg E4 QD per os, week 12): −98.5424
Relative change (% from baseline) in Hot Flush Weekly Weighted Score, mean (2.5 mg E4 QD per os, week 12): −57%
Difference with placebo, LS adjusted mean, absolute change in Hot Flush Weekly Weighted Score (2.5 mg E4 vs placebo, week 4): 2.897
Difference with placebo, LS adjusted mean, absolute change in Hot Flush Weekly Weighted Score (2.5 mg E4 vs placebo, week 12): 14.83
Differences with placebo, relative change in weekly weighted score, p_value (2.5 mg vs 0 mg, week 4): 1.0000
Differences with placebo, relative change in weekly weighted score, p_value (2.5 mg vs 0 mg, week 12): 0.6744
Relative change (% from baseline) in weekly weighted score, LS adjusted mean (2.5 mg, Week 12): −0.5795
Relative change (% from baseline) in weekly weighted score, LS adjusted mean (2.5 mg, week 4): −0.474
LS adjusted mean change from baseline in Hot Flush Weekly Weighted Score (5 mg E4, week 4): −66.88
LS adjusted mean change from baseline in Hot Flush Weekly Weighted Score (5 mg E4, week 12): −95.92
Mean change from baseline in Hot Flush Weekly Weighted Score (5 mg E4 QD per os, week 0): 1.8297
Mean change from baseline in Hot Flush Weekly Weighted Score (5 mg E4 QD per os, week 1): −33.7092
Relative change (% from baseline) in Hot Flush Weekly Weighted Score, mean (5 mg E4 QD per os, week 1): −22%
Mean change from baseline in Hot Flush Weekly Weighted Score (5 mg E4 QD per os, week 2): −49.1319
Relative change (% from baseline) in Hot Flush Weekly Weighted Score, mean (5 mg E4 QD per os, week 2): −32%
Mean change from baseline in Hot Flush Weekly Weighted Score (5 mg E4 QD per os, week 3): −56.9697
Relative change (% from baseline) in Hot Flush Weekly Weighted Score, mean (5 mg E4 QD per os, week 3): −37%
Mean change from baseline in Hot Flush Weekly Weighted Score (5 mg E4 QD per os, week 4): −64.8344
Relative change (% from baseline) in Hot Flush Weekly Weighted Score, mean (5 mg E4 QD per os, week 4): −43%
Mean change from baseline in Hot Flush Weekly Weighted Score (5 mg E4 QD per os, week 5): −71.6181
Relative change (% from baseline) in Hot Flush Weekly Weighted Score, mean (5 mg E4 QD per os, week 5): −46%
Mean change from baseline in Hot Flush Weekly Weighted Score (5 mg E4 QD per os, week 6): −88.2337
Relative change (% from baseline) in Hot Flush Weekly Weighted Score, mean (5 mg E4 QD per os, week 6): −56%
Mean change from baseline in Hot Flush Weekly Weighted Score (5 mg E4 QD per os, week 7): −88.2989
Relative change (% from baseline) in Hot Flush Weekly Weighted Score, mean (5 mg E4 QD per os, week 7): −56%
Mean change from baseline in Hot Flush Weekly Weighted Score (5 mg E4 QD per os, week 8): −89.2039
Relative change (% from baseline) in Hot Flush Weekly Weighted Score, mean (5 mg E4 QD per os, week 8): −56%
Mean change from baseline in Hot Flush Weekly Weighted Score (5 mg E4 QD per os, week 9): −90.923
Relative change (% from baseline) in Hot Flush Weekly Weighted Score, mean (5 mg E4 QD per os, week 9): −58%
Mean change from baseline in Hot Flush Weekly Weighted Score (5 mg E4 QD per os, week 10): −91.4798
Relative change (% from baseline) in Hot Flush Weekly Weighted Score, mean (5 mg E4 QD per os, week 10): −59%
Mean change from baseline in Hot Flush Weekly Weighted Score (5 mg E4 QD per os, week 11): −95.8365
Relative change (% from baseline) in Hot Flush Weekly Weighted Score, mean (5 mg E4 QD per os, week 11): −61%
Mean change from baseline in Hot Flush Weekly Weighted Score (5 mg E4 QD per os, week 12): −93.5117
Relative change (% from baseline) in Hot Flush Weekly Weighted Score, mean (5 mg E4 QD per os, week 12): −60%
Difference with placebo, LS adjusted mean, absolute change in Hot Flush Weekly Weighted Score (5 mg E4 vs placebo, week 4): 11.39
Difference with placebo, LS adjusted mean, absolute change in Hot Flush Weekly Weighted Score (5 mg E4 vs placebo, week 12): 8.767
Differences with placebo, relative change in weekly weighted score, p_value (5.0 mg vs 0 mg, week 4): 0.8833
Differences with placebo, relative change in weekly weighted score, p_value (5.0 mg vs 0 mg, week 12): 0.8871
Relative change (% from baseline) in weekly weighted score, LS adjusted mean (5 mg, Week 12): −0.5993
Relative change (% from baseline) in weekly weighted score, LS adjusted mean (5 mg, week 4): −0.4262
LS adjusted mean change from baseline in Hot Flush Weekly Weighted Score (10 mg E4, week 4): −85.56
LS adjusted mean change from baseline in Hot Flush Weekly Weighted Score (10 mg E4, week 12): −109.8
Mean change from baseline in Hot Flush Weekly Weighted Score (10 mg E4 QD per os, week 0): 2.3773
Mean change from baseline in Hot Flush Weekly Weighted Score (10 mg E4 QD per os, week 1): −31.4591
Relative change (% from baseline) in Hot Flush Weekly Weighted Score, mean (10 mg E4 QD per os, week 1): −20%
Mean change from baseline in Hot Flush Weekly Weighted Score (10 mg E4 QD per os, week 2): −54.0849
Relative change (% from baseline) in Hot Flush Weekly Weighted Score, mean (10 mg E4 QD per os, week 2): −35%
Mean change from baseline in Hot Flush Weekly Weighted Score (10 mg E4 QD per os, week 3): −73.5189
Relative change (% from baseline) in Hot Flush Weekly Weighted Score, mean (10 mg E4 QD per os, week 3): −47%
Mean change from baseline in Hot Flush Weekly Weighted Score (10 mg E4 QD per os, week 4): −87.2673
Relative change (% from baseline) in Hot Flush Weekly Weighted Score, mean (10 mg E4 QD per os, week 4): −54%
Mean change from baseline in Hot Flush Weekly Weighted Score (10 mg E4 QD per os, week 5): −93.4648
Relative change (% from baseline) in Hot Flush Weekly Weighted Score, mean (10 mg E4 QD per os, week 5): −58%
Mean change from baseline in Hot Flush Weekly Weighted Score (10 mg E4 QD per os, week 6): −101.646
Relative change (% from baseline) in Hot Flush Weekly Weighted Score, mean (10 mg E4 QD per os, week 6): −64%
Mean change from baseline in Hot Flush Weekly Weighted Score (10 mg E4 QD per os, week 7): −103.024
Relative change (% from baseline) in Hot Flush Weekly Weighted Score, mean (10 mg E4 QD per os, week 7): −64%
Mean change from baseline in Hot Flush Weekly Weighted Score (10 mg E4 QD per os, week 8): −104.835
Relative change (% from baseline) in Hot Flush Weekly Weighted Score, mean (10 mg E4 QD per os, week 8): −66%
Mean change from baseline in Hot Flush Weekly Weighted Score (10 mg E4 QD per os, week 9): −107.578
